Measured values reported in publication PMC8704606, “The Artemiside-Artemisox-Artemisone-M1 Tetrad: Efficacies against Blood Stage P. falciparum Parasites, DMPK Properties, and the Case for Artemiside” (Pharmaceutics, 2021).
Where two headings read alike, the source gives them in different places.

Legend:
[1] = test system: late-stage (LG) Pf NF54 gametocytes; assay: Luciferase assay, late-stage gametocytes; format: cell-based, Plasmodium falciparum; settings: late-stage gametocytes >90% stages IV-V, dose response obtained at 72 h, ± SEM
Experimental: For screening artemisox and M1 against early- (EG) and late-stage (LG) gametocytes, the luciferase assay with transgenic NF54-pfs16-GFP-Luc and NF54-Mal8p1.16-GFP-Luc parasite lines was used. With this assay, stage-specificity of gametocytocidal action was established (Table 2). Dose-response curves are in Figures S1d,e and S2d in the Supplementary Material 1. […] As was observed previously for artemisone and artemiside, dose responses for artemisox and M1 could not be obtained at 48 h against late-stage gametocytes.
The same reference compounds with the exception of CQ were used for the early- and late-stage gametocyte assays. Gametocytocidal activity was determined using the transgenic NF54-pfs16-GFP-Luc and NF54-Mal8p1.16-GFP-Luc reporter lines. Compounds were initially screened for activity at a fixed drug concentration of 1 µM, with dose responses subsequently determined using 2-fold serial drug dilutions for 48 h against early-stage gametocytes (day 5 post-induction population, ≥95% stages II–III) and 10-fold serial drug dilutions for 48 h or 72 h against late-stage gametocytes (day 10 post-induction population, ≥90% late-stage [stages IV–V]) (2 to 3% gametocytemia, 2% hematocrit) at 37 °C under 90% N2, 5% CO2, and 5% O2 [6]. No drug washout steps were performed during the drug incubation periods prior to the assays. In all cases, an interference assay was run in parallel to eliminate the possibility of false positives arising through compound interference with the luciferase readout.

[2] = Pharmacokinetics and metabolism after iv and po administration; format: in vivo; settings: for half-life: mean ± SD, read-out: t½ (converted); for MRT last: read-out: MRT0-last; for AUC(0-t): up to 7 h
Experimental: The plasma concentration-time profiles of the parent compounds and metabolites after administration iv and po to male C57/BL6 mice are presented in Figure 2, Figure 3 and Figure 4. Artemiside was quantifiable up to 24 h in all mice dosed iv and up to 7 h po (lower limit of quantitation LLOQ = 1.6 ng/mL or 0.004 μM) (Figure 2). […] For both artemiside and artemisox, the metabolite artemisone was quantifiable up to 3 h in both the po and iv groups (Figure 2 and Figure 3). Thereby it is confirmed that artemiside is rapidly converted via artemisox into artemisone. Artemisone itself was quantifiable up to three hours post dose (Figure 4). The mean circulating concentrations for the compounds and their metabolites are presented in Table S3a–f in the Supplementary Material 1. The metabolite M1 was also detected upon administration of artemiside, artemisox, and artemisone, but it was not quantified here; chromatograms indicating the presence of M1 are illustrated in Figure S3a–c in the Supplementary Material 1. In addition, the plasma concentration-time curves for artemiside and its metabolites artemisone and M1 following iv and po dosing in the same murine model are presented and discussed in detail elsewhere (cf. Figure 4 in reference).
All work was conducted with prior approval of the animal ethics committee of the University of Cape Town in accordance with the South African National Standards for the Care and Use of Animals for Scientific Purposes and guidelines from the South African Department of Health. The requirements and methods for the pharmacokinetics in vivo involving po and iv drug administration, sample extraction, analyses of samples by LC-MS/MS, and data analyses are described elsewhere. For the animal experiments and formulations, the compounds were dissolved in a 10:60:30 mixture of N,N-dimethylacetamide-polypropylene glycol-polyethylene glycol for intravenous dosing (iv) at 5 mg/kg. For the oral dose (po), compounds were individually dosed as a suspension in 0.5% (w/v) hydroxypropylmethylcellulose in water with 0.2% Tween80 at 50 mg/kg to male C57/BL6 mice (n = 3 for each group). For PK sampling, blood samples were collected at predetermined times (0.08, 0.25, 0.5, 1, 3, 5, 7, and 24 h) for both po and iv dosing via tail bleeding into heparinized tubes, centrifuged, and the plasma samples were stored at −80 °C until extraction. For preparation of samples, the frozen plasma samples were thawed and 15 μL was extracted by liquid–liquid extraction using a universal buffer (pH8) containing 10 ng/mL of the internal standard and ethyl acetate, and the extract was vortexed and centrifuged. Calibration standards and quality controls were extracted following the same procedure. Supernatants were dried down, reconstituted, and injected onto the column for LC-MS/MS analysis using an AB SCIEX 5500 QTRAP instrument coupled to an Agilent 1260 HPLC detection system as previously described.

[3] = Cytotoxicity (LDH assay) against HepG2 cells; format: cell-based; settings: human, HepG2 cells (hepatocellular carcinoma)
Experimental: Cytotoxicity against mammalian hepatocellular carcinoma cells (HepG2 cells) was determined using the lactate dehydrogenase assay (LDH, Biovision Inc., Milpitas, CA, USA). […] Compound working solutions were prepared from 10 mM stock solutions (100% DMSO) in complete DMEM to a final DMSO (Sigma-Aldrich) conc. of <0.1% (vol/vol). […] Data analysis was performed using GraphPad Prism (version 6) software.

[4] = male, C57/BL6, mouse, plasma, iv 5 mg/kg, parent drug
[5] = male, C57/BL6, mouse, plasma, po 50 mg/kg, parent drug

SMILES: C[C@H]1[C@H](N2CC[S+]([O-])CC2)O[C@@H]2O[C@@]3(C)CC[C@H]4[C@H](C)CC[C@@H]1[C@@]24OO3 [Artemisox 6, Artemisox]
- IC50 ([1]; Plasmodium falciparum, NF54, 72 h): 2.7 nM
- IC50 [1]: 2.72 ± 0.09 nM
- Mean iv circulating concentration ([2]; 7 h after iv 5 mg/kg artemisox 6): blq
- Mean iv circulating concentration ([2]; 24 h after iv 5 mg/kg artemisox 6): blq
- Mean po circulating concentration ([2]; 24 h after po 50 mg/kg artemiside 5): blq
- Mean po circulating concentration ([2]; 24 h after po 50 mg/kg artemisox 6): blq
- quantifiable/detectable in plasma up to ([2]; iv group, parent drug, LLOQ 1.6 ng/mL or 0.004 μM for artemiside): up to 5 h
- concentration at 0.08 h ([2]; male, C57/BL6, mouse, plasma, iv, 5 mg/kg, 0.08 h after iv 5 mg/kg artemiside 5, read-out: Mean iv circulating concentration): 1930 nM
- concentration at 0.08 h ([2]; male, C57/BL6, mouse, plasma, iv, 5 mg/kg, 0.08 h after iv 5 mg/kg artemisox 6, read-out: Mean iv circulating concentration): 1900 nM
- concentration at 0.25 h ([2]; male, C57/BL6, mouse, plasma, iv, 5 mg/kg, 0.25 h after iv 5 mg/kg artemiside 5, read-out: Mean iv circulating concentration): 1820 nM
- concentration at 0.25 h ([2]; male, C57/BL6, mouse, plasma, iv, 5 mg/kg, 0.25 h after iv 5 mg/kg artemisox 6, read-out: Mean iv circulating concentration): 2420 nM
- concentration at 0.5 h ([2]; male, C57/BL6, mouse, plasma, iv, 5 mg/kg, 0.5 h after iv 5 mg/kg artemiside 5, read-out: Mean iv circulating concentration): 1380 nM
- concentration at 0.5 h ([2]; male, C57/BL6, mouse, plasma, iv, 5 mg/kg, 0.5 h after iv 5 mg/kg artemisox 6, read-out: Mean iv circulating concentration): 1920 nM
- concentration at 1 h ([2]; male, C57/BL6, mouse, plasma, iv, 5 mg/kg, 1 h after iv 5 mg/kg artemiside 5, read-out: Mean iv circulating concentration): 674 nM
- concentration at 1 h ([2]; male, C57/BL6, mouse, plasma, iv, 5 mg/kg, 1 h after iv 5 mg/kg artemisox 6, read-out: Mean iv circulating concentration): 663 nM
- concentration at 3 h ([2]; male, C57/BL6, mouse, plasma, iv, 5 mg/kg, 3 h after iv 5 mg/kg artemiside 5, read-out: Mean iv circulating concentration): 66 nM
- concentration at 3 h ([2]; male, C57/BL6, mouse, plasma, iv, 5 mg/kg, 3 h after iv 5 mg/kg artemisox 6, read-out: Mean iv circulating concentration): 7 nM
- concentration at 5 h ([2]; male, C57/BL6, mouse, plasma, iv, 5 mg/kg, 5 h after iv 5 mg/kg artemiside 5, read-out: Mean iv circulating concentration): 20 nM
- concentration at 5 h ([2]; male, C57/BL6, mouse, plasma, iv, 5 mg/kg, 5 h after iv 5 mg/kg artemisox 6, read-out: Mean iv circulating concentration): 7 nM
- concentration at 7 h ([2]; male, C57/BL6, mouse, plasma, iv, 5 mg/kg, 7 h after iv 5 mg/kg artemiside 5, read-out: Mean iv circulating concentration): 11 nM
- concentration at 24 h ([2]; male, C57/BL6, mouse, plasma, iv, 5 mg/kg, 24 h after iv 5 mg/kg artemiside 5, read-out: Mean iv circulating concentration): 5 nM
- half-life ([2]; male, C57/BL6, mouse, plasma, iv, 5 mg/kg, iv 5 mg/kg, parent drug): 25.8 ± 7.2 min
- concentration at 0.08 h ([2]; male, C57/BL6, mouse, plasma, po, 50 mg/kg, 0.08 h after po 50 mg/kg artemiside 5, read-out: Mean po circulating concentration): 1860 nM
- concentration at 0.08 h ([2]; male, C57/BL6, mouse, plasma, po, 50 mg/kg, 0.08 h after po 50 mg/kg artemisox 6, read-out: Mean po circulating concentration): 3040 nM
- concentration at 0.25 h ([2]; male, C57/BL6, mouse, plasma, po, 50 mg/kg, 0.25 h after po 50 mg/kg artemiside 5, read-out: Mean po circulating concentration): 2150 nM
- concentration at 0.25 h ([2]; male, C57/BL6, mouse, plasma, po, 50 mg/kg, 0.25 h after po 50 mg/kg artemisox 6, read-out: Mean po circulating concentration): 4210 nM
- concentration at 0.5 h ([2]; male, C57/BL6, mouse, plasma, po, 50 mg/kg, 0.5 h after po 50 mg/kg artemiside 5, read-out: Mean po circulating concentration): 2510 nM
- concentration at 0.5 h ([2]; male, C57/BL6, mouse, plasma, po, 50 mg/kg, 0.5 h after po 50 mg/kg artemisox 6, read-out: Mean po circulating concentration): 2150 nM
- concentration at 1 h ([2]; male, C57/BL6, mouse, plasma, po, 50 mg/kg, 1 h after po 50 mg/kg artemiside 5, read-out: Mean po circulating concentration): 2030 nM
- concentration at 1 h ([2]; male, C57/BL6, mouse, plasma, po, 50 mg/kg, 1 h after po 50 mg/kg artemisox 6, read-out: Mean po circulating concentration): 2010 nM
- concentration at 3 h ([2]; male, C57/BL6, mouse, plasma, po, 50 mg/kg, 3 h after po 50 mg/kg artemiside 5, read-out: Mean po circulating concentration): 286 nM
- concentration at 3 h ([2]; male, C57/BL6, mouse, plasma, po, 50 mg/kg, 3 h after po 50 mg/kg artemisox 6, read-out: Mean po circulating concentration): 13 nM
- concentration at 5 h ([2]; male, C57/BL6, mouse, plasma, po, 50 mg/kg, 5 h after po 50 mg/kg artemiside 5, read-out: Mean po circulating concentration): 7 nM
- concentration at 5 h ([2]; male, C57/BL6, mouse, plasma, po, 50 mg/kg, 5 h after po 50 mg/kg artemisox 6, read-out: Mean po circulating concentration): 5 nM
- concentration at 7 h ([2]; male, C57/BL6, mouse, plasma, po, 50 mg/kg, 7 h after po 50 mg/kg artemiside 5, read-out: Mean po circulating concentration): 5 nM
- concentration at 7 h ([2]; male, C57/BL6, mouse, plasma, po, 50 mg/kg, 7 h after po 50 mg/kg artemisox 6, read-out: Mean po circulating concentration): 4 nM
- half-life ([2]; male, C57/BL6, mouse, plasma, po, 50 mg/kg, po 50 mg/kg, parent drug): 32.4 ± 6 min
- clearance ([2]; male, C57/BL6, mouse, plasma, iv 5 mg/kg): 115 mL/min/kg
- AUC(0-inf) [2, 4]: 2 ± 0.7 µM·h
- MRT last ([2]; male, C57/BL6, mouse, plasma, iv 5 mg/kg, parent drug, 0-last up to 7 h): 34.2 ± 2.4 min
- AUC(0-t) [2, 4]: 2 ± 0.7 µM·h
- Vd ([2]; male, C57/BL6, mouse, plasma, iv 5 mg/kg, read-out: Vss): 4 ± 1.2 L/kg
- bioavailability ([2]; male, C57/BL6, mouse, plasma, po 50 mg/kg vs iv 5 mg/kg, read-out: F (bioavailability)): 16 ± 2%
- Cmax [2, 5]: 4500 ± 2300 nM
- MRT last [2, 5]: 41.4 ± 5.4 min
- AUC(0-t) [2, 5]: 3.3 ± 1.4 µM·h
- MAT (mean absorption time = MRTpo–MRTiv) ([2]; po 50 mg/kg): 7.8 ± 4.2 min
- quantifiable/detectable in plasma up to ([2]; po group, parent drug): up to 7 h
- IC50 at 24 h [3]: > 50000 nM
